Results: patent publication USRE43343E1, “Inhibitors of histone deacetylase” (Methylgene Inc., priority 1999, dated 2012)

System: histone deacetylase in nuclear extracts from H446 cells (pooled HDACs)
Test: Histone deacetylase inhibition, H446 nuclear extracts (pooled HDACs)
Type: biochemical, human
Conditions: @ 20 μM
Description: (§1) The reaction was stopped by adding acetic acid (0.04 M, final concentration) and HCl (250 mM, final concentration). The mixture was extracted with ethyl acetate and the released [^3H]-acetic acid was quantified by scintillation counting. For inhibition studies, the enzyme was preincubated with compounds at 4° C. for 30 minutes prior to initiation of the enzymatic assay. IC50 values for HDAC enzyme inhibitors were determined by performing dose response curves with individual compounds and determining the concentration of inhibitor producing fifty percent of the maximal inhibition.

Row | SMILES | pooled HDACs percent inhibition at the specified concentration [% @ 20 μM]
1 | O=C(NO)c1ccc(CCCC(O)c2ccc3ccccc3c2)cc1 (stereo not drawn) [Compound 149] | 8
2 | Nc1ccccc1NC(=O)c1ccc(CC(=O)c2ccccc2)o1 [Compound 178] | 2
3 | Nc1ccccc1NC(=O)/C=C/c1ccc(CC(=O)c2ccccc2)o1 [Compound 139] | 44
4 | CN(C)c1ccc(CCc2ccccc2C(=O)NO)cc1 [Compound 173] | 35
5 | O=C(CCC1CCC(CC(=O)c2ccccc2)O1)NO (stereo not drawn) [Compound 176] | 20
6 | Nc1ccccc1NC(=O)/C=C/C#Cc1cccc(NS(=O)(=O)c2ccccc2)c1 [Compound 168] | 0
7 | O=C(CCCc1ccc(C(=O)NO)cc1)c1ccccc1 [Compound 177] | 10
8 | Nc1ccccc1NC(=O)CCc1ccc(CC(=O)c2ccccc2)o1 [Compound 144] | 6
9 | O=C(CCCc1ccc(CCCc2ccccc2)cc1)NO [Compound 155] | 39

Same assay, conditions: [3H]-acetylated histone substrate

Row | IC50 [nM] | SMILES
10 | 2000 | O=C(CCc1ccc(CCCCc2ccccc2)cc1)NO [Compound 154]
11 | > 20000 | O=C(Cc1ccc(CCCc2ccccc2)cc1)NO [Compound 175]

Target: T1, recombinant human HDAC-1 enzyme (rHDAC-1) (Homo sapiens, UniProt Q13547)
T1 construct: made in house; host or cells: Baculovirus insect cell expression system
T1 sequence (Q13547 whole entry): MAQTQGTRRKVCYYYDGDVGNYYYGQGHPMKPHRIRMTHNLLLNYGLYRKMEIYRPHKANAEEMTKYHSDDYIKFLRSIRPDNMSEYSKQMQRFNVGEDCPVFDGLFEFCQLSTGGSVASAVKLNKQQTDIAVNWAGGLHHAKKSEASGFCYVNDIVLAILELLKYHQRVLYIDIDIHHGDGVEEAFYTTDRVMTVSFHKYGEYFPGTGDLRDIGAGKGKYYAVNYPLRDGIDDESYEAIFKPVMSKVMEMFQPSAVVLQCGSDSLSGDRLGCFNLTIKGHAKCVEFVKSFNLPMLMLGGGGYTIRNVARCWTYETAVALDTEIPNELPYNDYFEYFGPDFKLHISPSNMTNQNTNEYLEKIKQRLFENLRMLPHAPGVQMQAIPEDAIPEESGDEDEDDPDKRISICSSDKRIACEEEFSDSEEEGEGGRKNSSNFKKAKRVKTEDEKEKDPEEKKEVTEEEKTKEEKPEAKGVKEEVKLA
Test: Histone deacetylase inhibition, recombinant human HDAC-1
Type: biochemical
Conditions: cloned recombinant human HDAC-1 from Baculovirus insect cell expression system
Description: as §1

Row | IC50 [nM] | SMILES
12 | 100 | O=C(NO)c1ccc(CCCC(O)c2ccc3ccccc3c2)cc1 (stereo not drawn) [Compound 149]
13 | 500 | O=C(/C=C/c1ccc(CC(O)c2ccccc2)o1)NO (stereo not drawn) [Compound 136]
14 | 300 | O=C(C#Cc1ccc(NS(=O)(=O)c2ccc(-c3ccccc3)cc2)cc1)NO [Compound 128]
15 | 1500 | Cc1ccc(NS(=O)(=O)c2ccc(/C=C/C(=O)Nc3ccccc3N)cc2)cc1 [Compound 159]
16 | 2000 | O=C(/C=C/c1ccc(NS(=O)(=O)c2ccc(-c3ccccc3)cc2)cc1)Nc1nnc(S)s1 [Compound 165]
17 | 2300 | COc1ccc(NS(=O)(=O)c2ccc(/C=C/C(=O)Nc3ccccc3N)cc2)cc1OC [Compound 118]
18 | 2400 | O=C(CCc1ccc(CCc2ccccc2)cc1)NO [Compound 157]
19 | 2300 | O=C(NO)c1ccc(/C=C/c2ccccc2)cc1 [Compound 151]
20 | 1200 | Nc1ccccc1NC(=O)/C=C/c1ccc(S(=O)(=O)Nc2ccc(-c3ccccc3)cc2)cc1 [Compound 160]
21 | 4800 | O=C(NO)c1ccc(CCCCCc2ccccc2)cc1 [Compound 153]
22 | 50 | Cc1ccc(NS(=O)(=O)c2ccc(/C=C/C(=O)NO)cc2)cc1 [Compound 161]
23 | 900 | O=C(CCc1ccc(CCCCc2ccccc2)cc1)NO [Compound 154]
24 | 480 | COc1ccc(NC(=O)Nc2ccc(/C=C/C(=O)NO)cc2)cc1OC [Compound 147]
25 | 910 | O=C(/C=C/c1ccc(NC(=O)Nc2cccc3ccccc23)cc1)NO [Compound 146]
26 | 5000 | COc1ccc(NS(=O)(=O)c2ccc(/C=C/C(=O)Nc3nnc(S)s3)cc2)cc1OC [Compound 164]
27 | 2300 | COc1ccc(S(=O)(=O)Nc2ccc(/C=C/C(=O)Nc3ccccc3N)cc2)cc1 [Compound 122]
28 | 750 | O=C(CCCc1ccc(CCCCc2ccccc2)cc1)NO [Compound 156]
29 | 6900 | Nc1ccccc1NC(=O)CCc1ccc(CC(=O)c2ccccc2)o1 [Compound 144]
30 | 23000 | COc1ccc(S(=O)(=O)Nc2ccc(CCC(=O)Nc3ccccc3N)cc2)cc1OC [Compound 121]
